As usually defined, the pKi is −log10 of the Ki, conventionally taken in molar units.

36 molecules from patent US7329652B2, “Diaminotriazole compounds useful as protein kinase inhibitors” (Vertex Pharamaceuticals Incorporated, priority 2004, dated 2008) can be followed below.

The target of assay [1] is T1, JAK3 (Homo sapiens, UniProt P52333).
T1 sequence (P52333 1-1124): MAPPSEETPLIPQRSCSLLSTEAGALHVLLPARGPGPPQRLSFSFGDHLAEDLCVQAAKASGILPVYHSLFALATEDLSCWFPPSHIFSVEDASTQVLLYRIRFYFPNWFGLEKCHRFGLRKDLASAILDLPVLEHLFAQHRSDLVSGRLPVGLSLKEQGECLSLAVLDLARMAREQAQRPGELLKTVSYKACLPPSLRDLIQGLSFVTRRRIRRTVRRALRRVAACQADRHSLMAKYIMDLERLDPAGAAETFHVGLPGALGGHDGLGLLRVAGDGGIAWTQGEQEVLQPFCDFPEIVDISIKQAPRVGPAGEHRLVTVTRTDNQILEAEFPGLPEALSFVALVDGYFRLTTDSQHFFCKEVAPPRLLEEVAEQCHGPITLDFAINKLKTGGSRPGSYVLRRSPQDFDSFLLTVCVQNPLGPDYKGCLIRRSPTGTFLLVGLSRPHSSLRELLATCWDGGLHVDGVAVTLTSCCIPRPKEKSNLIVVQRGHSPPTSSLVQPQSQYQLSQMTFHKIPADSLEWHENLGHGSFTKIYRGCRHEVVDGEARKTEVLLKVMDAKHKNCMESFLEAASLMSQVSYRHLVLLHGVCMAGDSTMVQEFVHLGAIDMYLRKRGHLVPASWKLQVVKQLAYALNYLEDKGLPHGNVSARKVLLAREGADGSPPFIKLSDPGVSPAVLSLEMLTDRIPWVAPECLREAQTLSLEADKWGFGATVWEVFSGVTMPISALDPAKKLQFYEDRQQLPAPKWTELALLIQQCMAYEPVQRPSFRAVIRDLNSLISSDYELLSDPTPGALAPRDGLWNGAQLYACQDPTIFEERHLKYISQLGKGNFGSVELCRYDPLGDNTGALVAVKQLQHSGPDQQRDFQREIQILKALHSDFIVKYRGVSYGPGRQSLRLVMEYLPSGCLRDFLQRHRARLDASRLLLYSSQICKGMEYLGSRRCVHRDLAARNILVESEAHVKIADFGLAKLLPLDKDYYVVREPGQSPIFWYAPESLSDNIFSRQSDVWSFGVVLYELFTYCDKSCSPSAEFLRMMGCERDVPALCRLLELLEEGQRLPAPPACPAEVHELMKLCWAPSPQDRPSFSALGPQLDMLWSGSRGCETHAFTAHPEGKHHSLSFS
In words: JAK3 inhibition assay (radiometric 33P filter assay). The class given is biochemical. The method, then:
(§1) Compounds were screened for their ability to inhibit JAK using the assay shown below. Reactions were carried out in a kinase buffer containing 100 mM HEPES (pH 7.4), 1 mM DTT, 10 mM MgCl2, 25 mM NaCl, and 0.01% BSA.
(§2) Substrate concentrations in the assay were 5 μM ATP (200 uCi/μmole ATP) and 1 μM poly(Glu)4Tyr. Reactions were carried out at 25° C. and 1 nM JAK3.
(§3) To each well of a 96 well polycarbonate plate was added 1.5 μl of a candidate JAK3 inhibitor along with 50 μl of kinase buffer containing 2 μM poly(Glu)4Tyr and 10 μM ATP. This was then mixed and 50 μl of kinase buffer containing 2 nM JAK3 enzyme was added to start the reaction. After 20 minutes at room temperature (25° C.), the reaction was stopped with 50 μl of 20% trichloroacetic acid (TCA) that also contained 0.4 mM ATP. The entire contents of each well were then transferred to a 96 well glass fiber filter plate using a TomTek Cell Harvester. After washing, 60 μl of scintillation fluid was added and ^33P incorporation detected on a Perkin Elmer TopCount.

For assay [2], the target named is JAK-2 enzyme (Homo sapiens, UniProt O60674). In words: JAK2 inhibition assay (radiometric 33P filter assay). In kind it is biochemical. On the procedure:
as §1, §2, §3
The assays were as described above in Example 25 except that JAK-2 enzyme was used, the final poly(Glu)4Tyr concentration was 15 μM, and final ATP concentration was 12 μM.

Where [3] appears, read: 1 μM poly(Glu)4Tyr, 5 μM ATP, 1 nM JAK3, 25° C., read-out: JAK3 inhibition data (Ki).
[4] abbreviates: 15 μM poly(Glu)4Tyr, 12 μM ATP, read-out: JAK2 inhibition data (Ki).

pKi: −log10 of the molar value. Like-named read-outs stand apart in the source and are kept apart here. A value given as a limit tells only on which side of the number the result lay.

Sequence of JAK-2 enzyme (O60674 whole entry, species assumed): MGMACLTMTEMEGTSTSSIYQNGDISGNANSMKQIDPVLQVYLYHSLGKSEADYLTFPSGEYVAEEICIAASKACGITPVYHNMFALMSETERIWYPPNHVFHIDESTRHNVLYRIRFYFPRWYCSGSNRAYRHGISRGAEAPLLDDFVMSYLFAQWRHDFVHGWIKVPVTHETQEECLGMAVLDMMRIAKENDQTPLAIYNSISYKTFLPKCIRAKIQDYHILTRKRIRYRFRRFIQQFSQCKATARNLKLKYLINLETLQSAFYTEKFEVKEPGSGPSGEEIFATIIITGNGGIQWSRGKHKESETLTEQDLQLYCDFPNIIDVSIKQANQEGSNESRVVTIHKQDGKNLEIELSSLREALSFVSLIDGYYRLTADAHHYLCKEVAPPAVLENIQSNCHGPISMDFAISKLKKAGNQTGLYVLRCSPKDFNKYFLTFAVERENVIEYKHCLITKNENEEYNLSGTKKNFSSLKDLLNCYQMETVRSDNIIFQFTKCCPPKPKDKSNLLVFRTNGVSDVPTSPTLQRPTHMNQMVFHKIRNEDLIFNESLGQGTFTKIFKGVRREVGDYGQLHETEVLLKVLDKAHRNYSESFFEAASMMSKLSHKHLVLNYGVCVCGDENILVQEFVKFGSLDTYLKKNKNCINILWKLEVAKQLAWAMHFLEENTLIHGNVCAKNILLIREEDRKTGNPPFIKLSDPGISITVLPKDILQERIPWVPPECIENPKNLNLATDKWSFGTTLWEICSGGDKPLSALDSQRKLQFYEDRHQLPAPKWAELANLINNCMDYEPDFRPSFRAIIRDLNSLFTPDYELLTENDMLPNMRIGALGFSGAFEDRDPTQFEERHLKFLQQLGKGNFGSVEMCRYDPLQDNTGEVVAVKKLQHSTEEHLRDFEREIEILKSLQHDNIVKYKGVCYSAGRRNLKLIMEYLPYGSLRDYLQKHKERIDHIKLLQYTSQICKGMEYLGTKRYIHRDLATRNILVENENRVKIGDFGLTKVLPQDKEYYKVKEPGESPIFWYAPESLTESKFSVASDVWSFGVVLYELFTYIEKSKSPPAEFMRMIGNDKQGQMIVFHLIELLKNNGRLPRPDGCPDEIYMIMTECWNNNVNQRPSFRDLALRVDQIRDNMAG

Consider `CC(=O)N1[C@H](C)CN(c2cc(-n3nc(Nc4ccc(NC(=O)OCC(C)C)cc4)nc3N)ccn2)C[C@@H]1C` [Compound 100], for which the pKi in assay [1] (setting [3]) and in assay [2] (setting [4]) was over 7.30 in each case.

With `CCCOC(=O)N1CCCN(c2cc(-n3nc(Nc4ccc(N5CCN(C(=O)OCC)CC5)cc4)nc3N)ccn2)CC1` [Compound 150], the pKi in assay [1] (setting [3]) and in assay [2] (setting [4]) was 6.30 to 7.30 throughout.

With `CC(=O)N1[C@H](C)CN(c2cc(-n3nc(Nc4ccc(NC(=O)NC(C)C)cc4)nc3N)ncn2)C[C@@H]1C` [Compound 69], the pKi in assay [1] (setting [3]) and in assay [2] (setting [4]) was over 7.30 in each case.

In the case of `CC(=O)Nc1ccc(Nc2nc(N)n(-c3ccnc(N4C[C@@H](C)N(C(C)=O)[C@@H](C)C4)c3)n2)cc1` [Compound 35, N-(4-{1-[2-(4-Acetyl-3,5-dimethyl-piperazin-1-yl)-pyridin-4-yl]-5-amino-1H-[1,2,4]triazol-3-ylamino}-phenyl)-acetamide], the pKi in assay [1] (setting [3]) and in assay [2] (setting [4]) was over 7.30 each time.

Regarding `CC(=O)N1[C@H](C)CN(c2cc(-n3nc(Nc4ccc(NC(=O)Oc5ccc(C)cc5)cc4)nc3N)ncn2)C[C@@H]1C` [Compound 81], the pKi in assay [1] (setting [3]) and in assay [2] (setting [4]) was over 7.30 in each case.

In the case of `CC(=O)N1[C@H](C)CN(c2cc(-n3nc(Nc4ccc(N(C)C(=O)Oc5ccc(C)cc5)cc4)nc3N)ncn2)C[C@@H]1C` [Compound 121], the pKi in assay [1] and in assay [2] was over 7.30 throughout.

As to `CCNC(=O)N1CCN(c2ccc(Nc3nc(N)n(-c4cc(N5C[C@@H](C)N(C(C)=O)[C@@H](C)C5)ncn4)n3)cc2)CC1` [Compound 60], the pKi in assay [1] (setting [3]) and in assay [2] (setting [4]) was over 7.30 in each case.

For the molecule `COc1ccc(OC(=O)N(C)c2ccc(Nc3nc(N)n(-c4cc(N5CCCN(C(C)=O)CC5)ncn4)n3)cc2)cc1` [Compound 135], the pKi in assay [1] and in assay [2] was over 7.30 throughout.

Regarding `CCCOC(=O)N(C)c1ccc(Nc2nc(N)n(-c3cc(N4C[C@@H](C)N(C(C)=O)[C@@H](C)C4)ncn3)n2)cc1` [Compound 118], the pKi in assay [1] (setting [3]) and in assay [2] (setting [4]) was over 7.30 throughout.

Consider `CCNC(=O)Nc1ccc(Nc2nc(N)n(-c3cc(N4C[C@@H](C)N(C(C)=O)[C@@H](C)C4)ncn3)n2)cc1` [Compound 67], for which the pKi in assay [1] (setting [3]) and in assay [2] (setting [4]) was over 7.30 in each case.

For `CCOC(=O)N1CCCN(c2cc(-n3nc(Nc4ccc(N5CCN(S(=O)(=O)CC)CC5)cc4)nc3N)ccn2)CC1` [Compound 153], the pKi in assay [1] (setting [3]) and in assay [2] (setting [4]) was 6.30 to 7.30 throughout.

For `CCCOC(=O)N1CCN(c2ccc(Nc3nc(N)n(-c4cc(N5CCCN(C(C)=O)CC5)ncn4)n3)cc2)CC1` [Compound 47], the pKi in assay [1] (setting [3]) and in assay [2] (setting [4]) was over 7.30 each time.

Regarding `COC(=O)N1CCN(c2ccc(Nc3nc(N)n(-c4cc(N5CCCN(C(C)=O)CC5)ncn4)n3)cc2)CC1` [Compound 45], the pKi in assay [1] (setting [3]) and in assay [2] (setting [4]) was over 7.30 each time.

On to `CC(=O)N1[C@H](C)CN(c2cc(-n3nc(Nc4ccc(NC(=O)NC5CCCCC5)cc4)nc3N)ncn2)C[C@@H]1C` [Compound 71], for which the pKi in assay [1] (setting [3]) and in assay [2] (setting [4]) was over 7.30 in each case.

`CC(=O)N1CCCN(c2cc(-n3nc(Nc4ccc(N5CCN(C(=O)Oc6ccc(C)cc6)CC5)cc4)nc3N)ncn2)CC1` [Compound 51]: the pKi in assay [1] (setting [3]) and in assay [2] (setting [4]) was over 7.30 in each case.

With `COC(=O)N1CCCN(c2cc(-n3nc(Nc4ccc(N5CCOCC5)cc4)nc3N)ncn2)CC1` [Compound 8], the pKi in assay [1] (setting [3]) and in assay [2] (setting [4]) was over 7.30 each time.

With `CCCNC(=O)Nc1ccc(Nc2nc(N)n(-c3ccnc(N4C[C@@H](C)N(C(C)=O)[C@@H](C)C4)c3)n2)cc1` [Compound 106], the pKi in assay [1] (setting [3]) and in assay [2] (setting [4]) was over 7.30 throughout.

Regarding `Cc1ccc(OC(=O)Nc2ccc(Nc3nc(N)n(-c4cc(N5CCCN(C(=O)CC#N)CC5)ncn4)n3)cc2)cc1` [Compound 138], the pKi in assay [1] (setting [3]) and in assay [2] (setting [4]) was over 7.30 throughout.

In the case of `CC(=O)N1[C@H](C)CN(c2cc(-n3nc(Nc4ccc(NC(=O)OC(C)C)cc4)nc3N)ncn2)C[C@@H]1C` [Compound 78], the pKi in assay [1] (setting [3]) and in assay [2] (setting [4]) was over 7.30 each time.

With `CC(=O)N1CCCN(c2cc(-n3nc(Nc4ccc(N(C)C(=O)OCC(C)C)cc4)nc3N)ncn2)CC1` [Compound 131], the pKi in assay [1] (setting [3]) and in assay [2] (setting [4]) was over 7.30 in each case.

On to `CCOC(=O)N1CCN(c2ccc(Nc3nc(N)n(-c4cc(NC)ncn4)n3)cc2)CC1` [Compound 167], for which the pKi in assay [1] (setting [3]) and in assay [2] (setting [4]) was over 7.30 throughout.

Regarding `N#CCC(=O)N1CCCN(c2cc(-n3nc(Nc4ccc(N5CCNCC5)cc4)nc3N)ncn2)CC1` [Compound 123], the pKi in assay [1] (setting [3]) and in assay [2] (setting [4]) was over 7.30 in each case.

As for `CC(=O)N1CCCN(c2cc(-n3nc(Nc4ccc(NC(=O)OCC(C)(C)C)cc4)nc3N)ccn2)CC1` [Compound 176], the pKi in assay [1] (setting [3]) and in assay [2] (setting [4]) was 6.30 to 7.30 each time.

Turning to `CCCCS(=O)(=O)N1CCCN(c2cc(-n3nc(Nc4ccc(N5CCN(C(=O)OCC)CC5)cc4)nc3N)ccn2)CC1` [Compound 147], the pKi in assay [1] (setting [3]) and in assay [2] (setting [4]) was 6.30 to 7.30 each time.

Regarding `CCNC(=O)Nc1ccc(Nc2nc(N)n(-c3ccnc(N4C[C@@H](C)N(C(C)=O)[C@@H](C)C4)c3)n2)cc1` [Compound 105], the pKi in assay [1] (setting [3]) and in assay [2] (setting [4]) was over 7.30 throughout.

In the case of `CC(=O)N1CCCN(c2cc(-n3nc(Nc4ccc(NC(=O)OCC(C)C)cc4)nc3N)ccn2)CC1` [Compound 175], the pKi in assay [1] (setting [3]) and in assay [2] (setting [4]) was 6.30 to 7.30 each time.

On to `CCOC(=O)N1CCN(c2ccc(Nc3nc(N)n(-c4ccnc(N5CCCN(C(=O)OCC)CC5)c4)n3)cc2)CC1` [Compound 149], for which the pKi in assay [1] (setting [3]) and in assay [2] (setting [4]) was 6.30 to 7.30 in each case.

`CC(=O)N1CCCN(c2cc(-n3nc(Nc4ccc(NC(=O)C5CCOCC5)cc4)nc3N)ncn2)CC1` [Compound 26]: the pKi in assay [1] (setting [3]) and in assay [2] (setting [4]) was over 7.30 throughout.

With `CCOC(=O)Nc1ccc(Nc2nc(N)n(-c3cc(N4CCCN(C(=O)CC#N)CC4)ncn3)n2)cc1` [Compound 137], the pKi in assay [1] (setting [3]) and in assay [2] (setting [4]) was over 7.30 in each case.

Take `CC(=O)N1CCCN(c2cc(-n3nc(Nc4ccc(N5CCOCC5)cc4)nc3N)ncn2)CC1` [Compound 2]: the pKi in assay [1] (setting [3]) and in assay [2] (setting [4]) was over 7.30 each time.

As to `CCOC(=O)N1CCN(c2ccc(Nc3nc(N)n(-c4cc(N5CCCN(C(=O)CC#N)CC5)ncn4)n3)cc2)CC1` [Compound 124], the pKi in assay [1] (setting [3]) and in assay [2] (setting [4]) was over 7.30 each time.

Take `CC(=O)N1CCCN(c2cc(-n3nc(Nc4ccc(NC(=O)O[C@@H]5C[C@@H](C)CC[C@@H]5C(C)C)cc4)nc3N)ncn2)CC1` [Compound 98]: the pKi in assay [1] (setting [3]) and in assay [2] (setting [4]) was 6.30 to 7.30 in each case.

Consider `CCCOC(=O)N1CCN(c2ccc(Nc3nc(N)n(-c4ccnc(N5CCCN(C(=O)OCC)CC5)c4)n3)cc2)CC1` [Compound 159], for which the pKi in assay [1] (setting [3]) and in assay [2] (setting [4]) was 6.30 to 7.30 each time.

Turning to `CCCC(=O)N1CCN(c2ccc(Nc3nc(N)n(-c4cc(N5CCCN(C(C)=O)CC5)ncn4)n3)cc2)CC1` [Compound 37], the pKi in assay [1] (setting [3]) and in assay [2] (setting [4]) was over 7.30 throughout.

Regarding `CCCOC(=O)N1CCN(c2ccc(Nc3nc(N)n(-c4ccnc(N5CCCN(C(=O)CC#N)CC5)c4)n3)cc2)CC1` [Compound 140], the pKi in assay [1] (setting [3]) and in assay [2] (setting [4]) was over 7.30 each time.

For `CCCOC(=O)N1CCN(c2ccc(Nc3nc(N)n(-c4ccnc(N5CCCN(S(C)(=O)=O)CC5)c4)n3)cc2)CC1` [Compound 162], the pKi in assay [1] (setting [3]) and in assay [2] (setting [4]) was 6.30 to 7.30 throughout.
